From patent publication US20250326815A1, “STAPLE-CONTAINING POLYPEPTIDES AND APPLICATION THEREOF” (Soter Biopharma Pte. Ltd., priority 2021, published 2025)

What was measured:
[1] = system: human plasma albumin; test: Plasma protein binding (PPB), human; type: in vitro ADME; parameters: key: NA indicates that the plasma protein binding is too high, and no free drug is detected at a normal plasma protein concentration; conditions: ultracentrifugation
Description: (§1) The binding degree of the assay compound to human/mouse plasma albumin was studied.
(§2) 1. Matrix preparation: on the day of the assay, plasma was thawed in cold water and centrifuged at 3220 rpm for 5 min to remove all clots. The pH of the resulting plasma was measured and adjusted to 7.4±0.1 using 1% phosphoric acid or IN sodium hydroxide as needed.
(§3) 2. Dilution procedure for the assay compound: the assay compound was dissolved in dimethyl sulfoxide (DMSO) to prepare stock solutions with concentrations of 10 mM and 2 mM, respectively. A 40 μM working solution was prepared by diluting 2 μL of stock solution (2 mM) with 98 μL of DMSO. A 400 μM working solution of the control compound was prepared by diluting 10 μL of stock solution with 240 μL of DMSO. The working solution of the compound (5 μL) was mixed well with a blank matrix (995 μL) at a ratio of 1:200 to prepare a loading matrix.
(§4) 3.1 An equal volume of 30 μL of loading matrix (n=2) was transferred to a sample collection plate to prepare a time 0 (T0) sample for residue determination. […]
(§5) 3.4 At the end of centrifugation, 30 μL of protein-free samples and 30 μL of T samples were transferred from the second layer of the supernatant (below the top layer) to a new sample collection plate. […] The mixture was centrifuged at 4000 rpm for 20 min and 100 μL of supernatant from each sample was analyzed by LC-MS/MS.

[2] = Plasma stability assay (PLS), mouse; type: in vitro ADME; conditions: pH 7.4, 37° C., read-out: PLS (mouse) T1/2
Description: Stability of the assay compound in normal mouse plasma was studied.
1. Before the assay, the coagulated frozen plasma was thawed in a 37° C. water bath. The plasma was centrifuged at 4000 rpm for 5 minutes. If there were blood clots, the blood clots were removed. The pH value was adjusted to 7.4±0.1.
2. Preparation of assay compound solution: An assay compound was dissolved in DMSO to prepare a 100 μM solution.
3. 98 μL of blank control plasma was added to 2 μL of the assay compound solution (100 μM), so that the final concentration of the mixed solution reached 2 μM. The mixed solution was incubated in a 37° C. water bath.
4. 100 μL of H3PO4 solution and 800 μL of stop solution (a solution of 200 ng/ml tolbutamide and 200 ng/ml labetalol in 100% methanol) were added at each time point (0, 10, 30, 60 and 120 min), respectively, to precipitate proteins, and mixed thoroughly.
5. The sample was centrifuged at 4000 rpm for 20 min. 100 μL of supernatant from each well was taken for LC-MS/MS analysis.

[3] = Plasma stability assay (PLS), human; type: in vitro ADME; conditions: pH 7.4, 37° C., read-out: PLS (human) T1/2
[4] = system: STZ-NASH mouse model; test: In vivo drug efficacy in STZ-NASH mouse model; parameters: species or system C57BL/6 mice; conditions: STZ-NASH mice, 20 nmol/kg SC every two days, 5 weeks, endpoint
Description: Drug efficacy of the assay substance in the NASH model induced by streptozotocin (STZ)+high-fat diet (HFD) in C57BL/6 mice was verified.
Modeling method: Newborn mice were subcutaneously injected with STZ (200 μg/mouse) within 48 hours after birth. After 4 weeks of breastfeeding, animals with a fasting blood glucose level of >12 mmol/L were selected and subjected to a HFD feeding for 6 consecutive weeks to finally establish the NASH model. Another 8 animals were selected without STZ injection and HFD feeding (normal control group).
Administration scheme: Administration was started after one week of HFD feeding, and the first day of administration was set as Day 1. Then, the mice were subcutaneously injected every two days for 5 consecutive weeks.
Detection at the endpoint of the assay: Pathological hematoxylin-eosin staining and picro sirius red staining were performed.

[5] = system: mouse plasma albumin; test: Plasma protein binding (PPB), mouse; type: in vitro ADME; parameters: key: NA indicates that the plasma protein binding is too high, and no free drug is detected at a normal plasma protein concentration; conditions: ultracentrifugation
Description: as §1, §2, §3, §4, §5

PPB % unbound (human) [1]	half-life at 2 μM [2]	half-life at 2 μM [3]	PPB % unbound (mouse) [5]	Compound	Ballooning score [4]	Fibrosis (%) [4]	Inflammation score [4]	NAS score [4]	Steatosis score [4]
NA/NA	> 4.82 h	> 4.82 h	NA/NA	CC(C)C[C@H](NC(=O)[C@H](CC(C)C)NC(=O)[C@H](Cc1c[nH]c2ccccc12)NC(=O)[C@H](CCC(=O)O)NC(=O)[C@@H](NC(=O)[C@H](Cc1ccccc1)NC(=O)[C@H](CCC(=O)O)NC(=O)[C@@H]1CCCCNC(=O)CN(C(=O)COCCOCCNC(=O)COCCOCCNC(=O)CC[C@H](NC(=O)CCCCCCCCCCCCCCCCCCC(=O)O)C(=O)O)CC(=O)NCCCC[C@H](NC(=O)[C@H](CCC(=O)O)NC(=O)[C@H](CC(=O)O)NC(=O)[C@H](CC(C)C)NC(=O)[C@H](Cc2ccc(O)cc2)NC(=O)[C@H](CCCCN)NC(=O)[C@H](CO)NC(=O)[C@H](Cc2ccc(O)cc2)NC(=O)[C@H](CC(=O)O)NC(=O)[C@H](CO)NC(=O)[C@@H](NC(=O)[C@H](Cc2ccccc2)NC(=O)[C@@H](NC(=O)CNC(=O)[C@H](CCC(N)=O)NC(=O)C(C)(C)NC(=O)[C@@H](N)Cc2c[nH]cn2)[C@@H](C)O)[C@@H](C)O)C(=O)N[C@@H](CCCCN)C(=O)N[C@@H](C)C(=O)N1)C(C)C)C(=O)N[C@@H](CCC(=O)O)C(=O)NCC(=O)NCC(=O)N1CCC[C@H]1C(=O)N[C@@H](CO)C(=O)N[C@@H](CO)C(=O)NCC(N)=O [WX001]	0	1.21%	1.63	2.63	1.0
NA/NA			NA/NA	CC(C)C[C@H](NC(=O)[C@H](CC(C)C)NC(=O)[C@H](Cc1c[nH]c2ccccc12)NC(=O)[C@@H]1CCCCNC(=O)CN(C(=O)COCCOCCNC(=O)COCCOCCNC(=O)CC[C@H](NC(=O)CCCCCCCCCCCCCCCCCCC(=O)O)C(=O)O)CC(=O)NCCCC[C@H](NC(=O)[C@H](C)NC(=O)[C@H](CCCCN)NC(=O)[C@H](CCCCN)NC(=O)[C@H](CCC(=O)O)NC(=O)[C@H](CC(=O)O)NC(=O)[C@H](CC(C)C)NC(=O)[C@H](Cc2ccc(O)cc2)NC(=O)[C@H](CCCCN)NC(=O)[C@H](CO)NC(=O)[C@H](Cc2ccc(O)cc2)NC(=O)[C@H](CC(=O)O)NC(=O)[C@H](CO)NC(=O)[C@@H](NC(=O)[C@H](Cc2ccccc2)NC(=O)[C@@H](NC(=O)CNC(=O)[C@H](CCC(N)=O)NC(=O)C(C)(C)NC(=O)[C@@H](N)Cc2c[nH]cn2)[C@@H](C)O)[C@@H](C)O)C(=O)N[C@@H](CCC(=O)O)C(=O)N[C@@H](Cc2ccccc2)C(=O)N[C@@H](C(C)C)C(=O)N1)C(=O)N[C@@H](CCC(=O)O)C(=O)NCC(=O)NCC(=O)N1CCC[C@H]1C(=O)N[C@@H](CO)C(=O)N[C@@H](CO)C(=O)NCC(N)=O [WX004]					
